Data taken from patent US10487087B2, “Positive allosteric modulators of the GLP-1 receptor” (Vanderbilt University, priority 2015, dated 2019).

Experiments:
Assay type in all cases: cell-based
human GLP-1R [1] = target: T1, human GLP-1R (Homo sapiens (Human), UniProt P43220); assay: GLP-1 assay with GLP1 endogenous agonist (calcium mobilization, EC20 GLP-1 peptide 7-36 amide); details: calcium flux; for Emax at 30 µM: 30 μM compound, EC20 of GLP-1 7-36 amide; for EC50: potentiation of EC20 GLP-1 7-36 amide
Description: A. GLP-1 Assay with GLP1 Endogenous Agonist
(§1) To assess the effects of test compounds on GLP-1 or glucagon potency and efficacy, a high-throughput calcium mobilization assay was used essentially as previously described (Morris L C, Days E L, Turney M, Mi D, Lindsley C W, Weaver C D, Niswender K D, A Duplexed High-Throughput Screen to Identify Allosteric Modulators of the Glucagon-Like Peptide 1 and Glucagon Receptors. J. Biomol. Screen. 2014 Feb. 13, 19(6):847-858). Briefly, human GLP-1R or Glucagon Receptor 9-3-H cells over-expressing a promiscuous G-protein (Millipore, Billerica, Mass.) were plated at 15,000 cells/well in black-walled 384-well plates (Greiner Bio-one, Monroe, N.C.) in Dulbecco's Modified Eagles Medium (DMEM) with 10% FCS, 4.0 mM L-glutamine, non-essential amino acids (NEAAs), and 10.0 mM HEPES without antibiotics. After overnight attachment, cells were washed twice with assay buffer (HBSS supplemented with 20 mM HEPES and 1.0 mM probenecid) using an ELx405CW cell washer (Bio-Tek, Winooski, Vt.) and then loaded with the calcium sensitive dye fluo-4 AM (Invitrogen, Grand Island, N.Y.) at a final concentration of 2.0 μM in assay buffer. After a 45-minute incubation at room temperature, the dye was removed by washing, leaving 20 μL of assay buffer. Next, the cell plate was introduced alongside a 384-well compound plate containing 0.1% final DMSO control wells and 11-point concentration response curves of putative GLP-1 PAMs created using a non-pipet based liquid transfer instrument, ECH0555 (Labcyte, Sunnyvale, Calif.). After a 20 μL compound addition to the appropriate wells, kinetic fluorescent measurements were collected for 2 minutes using an FDSS6000 (Hamamatsu, Bridgewater, N.J.) with 488 nm excitation and 480/540 emission filters. After 2 minutes, 10 μL of an EC20 concentration of GLP-1 peptide 7-36 amide (Phoenix Pharmaceuticals, Burlingame, Calif.), Glucagon (Phoenix Pharmaceuticals, Burlingame, Calif.) Exendin-4 (Tocris Bioscience, Bristol, UK), or Liraglutide (Victoza™, Novo-Nordisk, Denmark) was added and fluorescence was monitored for an additional 2 minutes to observe potentiation of the calcium flux signal. […] Recombinant peptides were reconstituted into assay buffer supplemented with 0.1% fatty acid free BSA (Sigma #A6003) and diluted into borosilicate glass tubes to maximize peptide recovery (Goebel-Stengel M, Stengel A, Tache Y, Reeve J R Jr., The importance of using the optimal plasticware and glassware in studies involving peptides. Anal. Biochem. 2011 Jul. 1, 414(1):38-46).
(§2) Data is from a single experiment unless otherwise noted. Data that is an average of two experiments is noted as “n=2” while data that is an average of three or more experiments is presented as the average plus or minus the standard error of the mean.

human GLP-1R [2] = target: T1, human GLP-1R; assay: GLP-1 assay with EX-4 synthetic agonist (calcium mobilization, EC20 EX-4); details: calcium flux; for Emax at 30 µM: 30 μM compound, EC20 of EX-4; for EC50: potentiation of EC20 EX-4, read-out: GLP1 EC50 (Ex-4 synthetic agonist)
Description: B. GLP-1 Assay with EX-4 Synthetic Agonist
as §1, with “L-glutamine, 1×” for “L-glutamine,”, “EL×405CW” for “ELx405CW”, “EX-4” for “GLP-1 peptide 7-36 amide”, “Taché” for “Tache”
as §2

human GLP-1R [3] = target: T1, human GLP-1R; assay: GLP-1 concentration response curves in the presence of fixed concentrations of PAM (GLP-1 induced calcium flux); details: 0 μM, 3 μM, 10 μM, 30 μM of compound; FIGS. 2A and 2B
Description: FIGS. 2A and 2B show a series of GLP-1 concentration response curves in the presence of fixed concentrations of an exemplary positive allosteric modulator (Compound 1).

T1 sequence (P43220 24-463): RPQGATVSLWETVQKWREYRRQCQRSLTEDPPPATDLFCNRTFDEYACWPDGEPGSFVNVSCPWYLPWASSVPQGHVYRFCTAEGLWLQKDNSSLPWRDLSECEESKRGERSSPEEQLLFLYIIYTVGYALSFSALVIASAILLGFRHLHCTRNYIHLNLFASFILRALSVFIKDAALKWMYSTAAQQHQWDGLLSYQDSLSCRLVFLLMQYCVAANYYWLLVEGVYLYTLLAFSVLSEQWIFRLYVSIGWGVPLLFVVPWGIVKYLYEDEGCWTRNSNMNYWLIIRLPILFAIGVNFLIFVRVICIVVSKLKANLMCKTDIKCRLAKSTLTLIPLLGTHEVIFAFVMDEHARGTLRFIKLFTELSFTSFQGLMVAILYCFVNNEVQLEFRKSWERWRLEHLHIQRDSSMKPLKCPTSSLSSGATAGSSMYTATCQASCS

Structure (SMILES) | Emax at 30 µM (human GLP-1R [1]) [%] | EC50 (human GLP-1R [1]) [µM] | Emax at 30 µM (human GLP-1R [2]) [%] | EC50 (human GLP-1R [2]) [µM] | shift of GLP-1 concentration response curves / GLP-1 EC50 (human GLP-1R [3])
Cc1c2n(c3ccccc13)[C@H](C(=O)NC[C@@H]1CCCN1C(C)C)CN(C1CCCC1)C2=O [Compound 9, (S)-2-cyclopentyl-N-(((S)-1-isopropylpyrrolidin-2-yl)methyl)-10-methyl-1-oxo-1,2,3,4-tetrahydropyrazino[1,2-a]indole-4-carboxamide] | 40 | > 30 | 33 | > 30 | 
CC(C)N1CCC[C@@H]1CNC(=O)c1cn(C2CCCC2)c(=O)c2c(Cl)c3ccccc3n12 [Compound 11, (R)-10-chloro-2-cyclopentyl-N-((1-isopropylpyrrolidin-2-yl)methyl)-1-oxo-1,2-dihydropyrazino[1,2-a]indole-4-carboxamide] | 44 | > 30 |  | > 30 | 
CC(C)N1CCC[C@H]1CNC(=O)c1cn(C2CCCC2)c(=O)c2c(Br)c3ccccc3n12 [Compound 12, (S)-10-bromo-2-cyclopentyl-N-((1-isopropylpyrrolidin-2-yl)methyl)-1-oxo-1,2-dihydropyrazino[1,2-a]indole-4-carboxamide] | 53 | 2.2 | 59 | 3.6 | 

Further lines, with some results ahead:

Emax at 30 µM (human GLP-1R [1]) [%] | EC50 (human GLP-1R [1]) [µM] | Emax at 30 µM (human GLP-1R [2]) [%] | EC50 (human GLP-1R [2]) [µM] | Structure (SMILES) | shift of GLP-1 concentration response curves / GLP-1 EC50 (human GLP-1R [3])
57 | 2.7 | 59 | 4.6 | Cc1c2ccccc2n2c(C(=O)NC[C@@H]3CCCN3C(C)C)cn(C3CCCC3)c(=O)c12 [Compound 1, (S)-2-Cyclopentyl-N-((1-isopropylpyrrolidin-2-yl)methyl)-10-methyl-1-oxo-1,2-dihydropyrazino[1,2-a]indole-4-carboxamide] | leftward shift in the GLP-1 concentration response curves
61 | 1.3 | 57 | 1.5 | CC(C)N1CCC[C@H]1CNC(=O)c1cn(C2CCCC2)c(=O)c2c(Cl)c3ccccc3n12 [Compound 10, (S)-10-chloro-2-cyclopentyl-N-((1-isopropylpyrrolidin-2-yl)methyl)-1-oxo-1,2-dihydropyrazino[1,2-a]indole-4-carboxamide] | 
39 | > 30 |  | > 30 | CC(C)N1CCC[C@@H]1CNC(=O)c1cn(C2CCCC2)c(=O)c2c(Br)c3ccccc3n12 [Compound 13, (R)-10-bromo-2-cyclopentyl-N-((1-isopropylpyrrolidin-2-yl)methyl)-1-oxo-1,2-dihydropyrazino[1,2-a]indole-4-carboxamide] | 
